Test [1] concerns the target Metabotropic glutamate receptor 5 (Rattus norvegicus, UniProt P31424). Kind of test: Antagonist activity at rat mGluR5 expressed in human HEK293A cells assessed as inhibition of glutamate-induced calcium flux. It is filed as functional, cell-based, HEK293-A.
Test [2] concerns the target Metabotropic glutamate receptor 5 (Rattus norvegicus) (UniProt P31424). Description: Antagonist activity at rat mGluR5 expressed in human HEK293A cells assessed as inhibition of glutamate-induced calcium flux relative to glutamate. The format is functional, cell-based. The following applies: HEK293-A.
Test [3] deals with Metabotropic glutamate receptor 5 (Homo sapiens, UniProt P41594). Description: Antagonist activity at mGluR5. The format is functional.
Metabotropic glutamate receptor 5 (Homo sapiens, UniProt P41594), sequence (P41594 whole entry): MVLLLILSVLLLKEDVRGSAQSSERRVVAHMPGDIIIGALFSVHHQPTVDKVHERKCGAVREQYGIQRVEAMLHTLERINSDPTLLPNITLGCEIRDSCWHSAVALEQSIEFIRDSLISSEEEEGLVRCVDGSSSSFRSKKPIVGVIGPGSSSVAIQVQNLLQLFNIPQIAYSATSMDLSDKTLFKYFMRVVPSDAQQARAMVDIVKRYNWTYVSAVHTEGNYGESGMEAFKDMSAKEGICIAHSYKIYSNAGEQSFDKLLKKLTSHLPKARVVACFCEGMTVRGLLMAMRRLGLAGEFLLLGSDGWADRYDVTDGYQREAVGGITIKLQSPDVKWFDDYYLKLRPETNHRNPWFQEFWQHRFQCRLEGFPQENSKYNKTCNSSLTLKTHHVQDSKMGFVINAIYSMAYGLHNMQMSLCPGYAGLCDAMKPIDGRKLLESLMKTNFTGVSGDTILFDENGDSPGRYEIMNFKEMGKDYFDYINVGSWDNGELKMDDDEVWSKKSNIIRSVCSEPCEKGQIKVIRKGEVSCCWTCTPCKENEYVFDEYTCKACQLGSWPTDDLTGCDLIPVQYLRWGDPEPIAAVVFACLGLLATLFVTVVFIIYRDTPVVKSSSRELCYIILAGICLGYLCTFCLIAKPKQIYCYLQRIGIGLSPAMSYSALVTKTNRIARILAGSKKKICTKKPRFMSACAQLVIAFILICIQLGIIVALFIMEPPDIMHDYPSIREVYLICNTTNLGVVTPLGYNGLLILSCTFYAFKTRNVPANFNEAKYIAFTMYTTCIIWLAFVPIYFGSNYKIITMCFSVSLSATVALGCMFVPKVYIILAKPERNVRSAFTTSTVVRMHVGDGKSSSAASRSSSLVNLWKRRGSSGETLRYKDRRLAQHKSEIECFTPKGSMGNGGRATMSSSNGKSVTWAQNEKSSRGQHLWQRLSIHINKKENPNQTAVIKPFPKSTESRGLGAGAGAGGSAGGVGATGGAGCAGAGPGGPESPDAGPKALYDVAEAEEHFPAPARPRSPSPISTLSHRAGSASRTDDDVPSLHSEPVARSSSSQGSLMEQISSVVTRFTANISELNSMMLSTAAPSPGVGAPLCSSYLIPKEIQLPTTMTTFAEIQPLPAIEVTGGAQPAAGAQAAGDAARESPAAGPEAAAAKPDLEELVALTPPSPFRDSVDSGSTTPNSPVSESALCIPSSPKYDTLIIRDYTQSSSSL

Some results are limits rather than exact numbers.

Metabotropic glutamate receptor 5 (Rattus norvegicus, UniProt P31424), sequence (P31424 whole entry): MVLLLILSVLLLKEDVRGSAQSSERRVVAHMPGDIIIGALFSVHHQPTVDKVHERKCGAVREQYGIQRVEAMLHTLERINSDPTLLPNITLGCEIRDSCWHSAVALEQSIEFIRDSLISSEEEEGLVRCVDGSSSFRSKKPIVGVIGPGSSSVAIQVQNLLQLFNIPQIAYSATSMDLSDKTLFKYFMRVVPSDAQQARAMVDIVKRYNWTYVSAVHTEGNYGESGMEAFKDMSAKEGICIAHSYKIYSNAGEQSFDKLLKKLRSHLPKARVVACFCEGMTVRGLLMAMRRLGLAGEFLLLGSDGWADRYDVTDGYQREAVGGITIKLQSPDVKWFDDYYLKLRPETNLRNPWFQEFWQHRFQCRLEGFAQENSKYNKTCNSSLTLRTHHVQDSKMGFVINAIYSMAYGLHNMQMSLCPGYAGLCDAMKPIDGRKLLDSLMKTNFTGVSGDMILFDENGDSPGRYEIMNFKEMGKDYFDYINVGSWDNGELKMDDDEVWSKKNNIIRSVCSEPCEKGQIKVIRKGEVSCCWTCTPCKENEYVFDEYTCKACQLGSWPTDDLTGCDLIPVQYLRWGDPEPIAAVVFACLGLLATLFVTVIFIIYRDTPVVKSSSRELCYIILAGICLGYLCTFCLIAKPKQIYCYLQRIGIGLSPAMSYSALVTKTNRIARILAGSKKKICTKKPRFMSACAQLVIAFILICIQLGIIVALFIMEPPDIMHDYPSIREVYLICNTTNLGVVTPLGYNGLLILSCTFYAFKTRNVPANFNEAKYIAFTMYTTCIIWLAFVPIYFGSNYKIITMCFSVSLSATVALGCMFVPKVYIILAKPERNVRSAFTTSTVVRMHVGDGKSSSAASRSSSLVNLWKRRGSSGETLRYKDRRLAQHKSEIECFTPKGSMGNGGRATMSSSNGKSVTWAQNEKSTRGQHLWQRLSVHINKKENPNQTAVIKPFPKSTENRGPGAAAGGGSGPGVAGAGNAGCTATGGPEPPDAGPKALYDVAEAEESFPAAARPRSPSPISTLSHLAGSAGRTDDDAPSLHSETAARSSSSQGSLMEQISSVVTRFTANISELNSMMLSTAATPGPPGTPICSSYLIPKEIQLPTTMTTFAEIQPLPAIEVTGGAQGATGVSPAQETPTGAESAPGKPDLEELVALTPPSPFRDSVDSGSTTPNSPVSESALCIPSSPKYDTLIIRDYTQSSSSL
Metabotropic glutamate receptor 5 (Rattus norvegicus), sequence (P31424 21-1203 limits assumed): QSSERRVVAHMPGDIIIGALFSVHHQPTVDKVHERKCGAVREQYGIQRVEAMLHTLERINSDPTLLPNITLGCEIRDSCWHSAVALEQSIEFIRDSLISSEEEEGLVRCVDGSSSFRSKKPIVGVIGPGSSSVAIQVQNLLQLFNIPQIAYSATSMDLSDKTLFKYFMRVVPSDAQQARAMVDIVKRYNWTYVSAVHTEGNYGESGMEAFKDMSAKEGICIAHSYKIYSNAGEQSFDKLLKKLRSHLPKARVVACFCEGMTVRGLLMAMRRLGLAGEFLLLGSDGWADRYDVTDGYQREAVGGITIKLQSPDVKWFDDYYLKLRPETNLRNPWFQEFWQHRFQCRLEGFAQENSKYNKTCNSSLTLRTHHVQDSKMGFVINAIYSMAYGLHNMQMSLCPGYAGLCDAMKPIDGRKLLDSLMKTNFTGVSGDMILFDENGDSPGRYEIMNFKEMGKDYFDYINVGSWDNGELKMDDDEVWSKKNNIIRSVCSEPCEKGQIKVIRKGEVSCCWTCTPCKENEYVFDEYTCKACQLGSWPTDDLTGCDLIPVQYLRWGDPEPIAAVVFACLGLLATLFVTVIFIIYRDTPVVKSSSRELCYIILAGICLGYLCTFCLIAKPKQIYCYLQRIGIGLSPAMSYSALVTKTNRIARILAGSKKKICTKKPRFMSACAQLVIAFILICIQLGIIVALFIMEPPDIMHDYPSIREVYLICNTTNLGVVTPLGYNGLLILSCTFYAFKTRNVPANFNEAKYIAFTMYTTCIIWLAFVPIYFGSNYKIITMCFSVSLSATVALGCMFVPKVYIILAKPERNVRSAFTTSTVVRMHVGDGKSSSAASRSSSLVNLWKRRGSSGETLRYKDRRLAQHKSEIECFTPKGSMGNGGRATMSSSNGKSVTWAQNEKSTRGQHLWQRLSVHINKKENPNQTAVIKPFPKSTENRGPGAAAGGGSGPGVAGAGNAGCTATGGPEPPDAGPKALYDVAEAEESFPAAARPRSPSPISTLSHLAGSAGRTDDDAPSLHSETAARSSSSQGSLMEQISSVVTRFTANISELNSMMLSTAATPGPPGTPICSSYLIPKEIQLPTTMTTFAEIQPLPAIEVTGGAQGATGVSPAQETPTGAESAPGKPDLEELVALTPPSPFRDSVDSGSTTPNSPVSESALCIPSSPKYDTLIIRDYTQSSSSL

With `COc1ccccc1C(=O)Nc1cccc(NC(=O)C2CCCC2)c1`, the IC50 in test [1] was above 30 µM. As for `COc1ccccc1C(=O)Nc1cccc(NC(=O)c2ccc(Cl)c(Cl)c2)c1`, the IC50 in test [1] was above 30 µM. Turning to `COc1ccccc1C(=O)Nc1cccc(NC(=O)C2CCC2)c1`, the IC50 in test [1] is above 30 µM.

In the case of `COc1ccccc1C(=O)Nc1cccc(NC(=O)c2cccc(C(F)(F)F)c2)c1`, in test [1], the IC50 is 10.6 µM. Moreover, the % Glu Max in test [2] was determined as 26.1%. As for `O=C(NC1CC2CCC1C2)c1cccc(N2C(=O)c3ccccc3C2=O)c1` (stereo not drawn), the IC50 in test [1] was above 30 µM. The % Glu Max in test [2] worked out at 71%. `COc1ccccc1C(=O)Nc1cccc(NC(=O)c2cccc(Cl)c2)c1`: the IC50 in test [3] turned out to be 1.1 µM; in test [1], 0.88 µM. Further, the % Glu Max in test [2] came out at 2.6%. For `O=C(Nc1cccc(O)c1)c1cccc(N2C(=O)c3ccccc3C2=O)c1`, in test [1], the IC50 was 7.79 µM. Besides, the % Glu Max in test [2] is 48.1%. As to `O=C(Nc1cccc(NC(=O)C2CCCC2)c1)c1cccc(Cl)c1`, the IC50 in test [1] was above 30 µM. With `O=C(Nc1cccc(NC(=O)C2CCC2)c1)c1cccc(Cl)c1`, the IC50 in test [1] stood at 5.27 µM. Also, the % Glu Max in test [2] came out at 44%. Turning to `O=C(Nc1cccnc1)c1cccc(N2C(=O)c3ccccc3C2=O)c1`, the IC50 in test [1] was above 30 µM. The % Glu Max in test [2] was determined as 86%. As to `COc1ccccc1C(=O)Nc1cccc(NC(=O)c2ccc(F)cc2)c1`, in test [1], the IC50 is above 30 µM. As to `O=C(Cc1ccccc1)Nc1cccc(NC(=O)c2cccc(Cl)c2)c1`, in test [1], the IC50 is above 30 µM. As for `CC(C)C(=O)Nc1cccc(NC(=O)c2cccc(Cl)c2)c1`, in test [1], the IC50 is 5.82 µM. In test [2], the % Glu Max is 26.9%.

On to `COc1ccccc1C(=O)Nc1cccc(NC(=O)c2ccccc2Cl)c1`, for which, in test [1], the IC50 is above 30 µM. With `COc1ccccc1C(=O)Nc1cccc(NC(=O)c2ccc3c(c2)OCO3)c1`, in test [1], the IC50 was above 30 µM. Take `COCC(=O)Nc1cccc(NC(=O)c2cccc(Cl)c2)c1`: in test [1], the IC50 was above 30 µM. As for `COc1ccccc1C(=O)Nc1cccc(NC(=O)Cc2ccccc2)c1`, the IC50 in test [1] is above 30 µM. Consider `O=C(Nc1cccc(NC(=O)c2ccc(Cl)c(Cl)c2)c1)c1cccc(Cl)c1`, for which, in test [1], the IC50 was above 30 µM. Consider `COc1ccccc1C(=O)Nc1cccc(NC(=O)C2CC2)c1`, for which the IC50 in test [1] was above 30 µM.

As to `COc1ccccc1C(=O)Nc1cccc(NC(=O)C2CC2c2ccccc2)c1` (stereo not drawn), the IC50 in test [1] was above 30 µM. With `O=C(Nc1cccc(NC(=O)c2cccc(Cl)c2)c1)c1cccc(Cl)c1`, in test [1], the IC50 is above 30 µM. `O=C(NC1CC1)c1cccc(N2C(=O)c3ccccc3C2=O)c1`: the IC50 in test [1] is above 30 µM. In addition, in test [2], the % Glu Max is 68%.

Turning to `O=C(Nc1cccc(NC(=O)c2cccc(Cl)c2)c1)c1ccc(Cl)cc1`, the half-inhibitory concentration (IC50) in test [1] is above 30 µM.

In the case of `O=C(Nc1cccc(NC(=O)c2ccco2)c1)c1cccc(Cl)c1`, in test [1], the IC50 came out at 4.51 µM. Besides, in test [2], the % Glu Max worked out at 49.3%. For `COCC(=O)Nc1cccc(NC(=O)c2ccccc2OC)c1`, the IC50 in test [1] was above 30 µM. As for `COc1ccccc1NC(=O)c1cccc(N2C(=O)c3ccccc3C2=O)c1`, the IC50 in test [1] was above 30 µM. The % Glu Max in test [2] was 86%. Consider `COc1ccccc1C(=O)Nc1cccc(NC(=O)c2ccco2)c1`, for which the IC50 in test [1] is above 30 µM.

For the compound `O=C(Nc1cccc(NC(=O)c2ccccc2Cl)c1)c1cccc(Cl)c1`, the IC50 in test [1] amounted to 2.62 µM. For the same compound, the % Glu Max in test [2] came to 8.78%.

Consider `O=C(Nc1ccccc1F)c1cccc(N2C(=O)c3ccccc3C2=O)c1`, for which, in test [1], the IC50 amounted to 1.05 µM. The % Glu Max in test [2] turned out to be 49.9%. `O=C(Nc1cccc(NC(=O)c2ccc3c(c2)OCO3)c1)c1cccc(Cl)c1`: the IC50 in test [1] was above 30 µM. On the same count and under the same terms, the result for `O=C(Nc1cccc(NC(=O)C23CC4CC(CC(C4)C2)C3)c1)c1cccc(Cl)c1` reads above 30 µM; that for `O=C(Nc1cccc(NC(=O)c2cccc(C(F)(F)F)c2)c1)c1cccc(Cl)c1`, above 30 µM. Consider `CC(=O)Nc1cccc(NC(=O)c2cccc(Cl)c2)c1`, for which, in test [1], the IC50 worked out at 7.97 µM. Besides, the % Glu Max in test [2] worked out at 39.6%.

For the compound `COc1ccccc1C(=O)Nc1cccc(NC(=O)c2ccc(Cl)cc2)c1`, the IC50 in test [1] was above 30 µM. With `COc1ccccc1C(=O)Nc1cccc(NC(=O)c2cccc(C)c2)c1`, in test [1], the IC50 is 1.35 µM. Also, the % Glu Max in test [2] was 3.82%. Consider `COc1ccccc1C(=O)Nc1cccc(NC(=O)C2CCCCC2)c1`, for which the IC50 in test [1] is above 30 µM.

With `Cc1cccc(C(=O)Nc2cccc(NC(=O)c3cccc(Cl)c3)c2)c1`, in test [1], the IC50 is above 30 µM. Take `O=C(Nc1cccc(Cl)c1)c1cccc(N2C(=O)c3ccccc3C2=O)c1`: the IC50 in test [1] was 1.78 µM. Further, the % Glu Max in test [2] turned out to be 26.4%. `O=C(Nc1cccc(NC(=O)C2CC2)c1)c1cccc(Cl)c1`: the IC50 in test [1] turned out to be 2.23 µM. In test [2], the % Glu Max was 32.3%. For the compound `O=C(Nc1ccccn1)c1cccc(N2C(=O)c3ccccc3C2=O)c1`, the IC50 in test [1] amounted to 1.26 µM. Also, in test [2], the % Glu Max came out at 59.5%. Consider `COc1ccccc1C(=O)Nc1cccc(NC(=O)c2cccc(C#N)c2)c1`, for which the IC50 in test [1] was determined as 1.8 µM. The % Glu Max in test [2] is 3.22%.

For the compound `O=C(Nc1ccc(F)cc1)c1cccc(N2C(=O)c3ccccc3C2=O)c1`, the half-maximal inhibitory concentration (IC50) in test [1] was above 30 µM. In addition, in test [2], the % Glu Max is 73%.

As to `COc1ccccc1C(=O)Nc1cccc(NC(C)=O)c1`, the IC50 in test [1] was above 30 µM. Consider `COc1ccccc1C(=O)Nc1cccc(NC(=O)C23CC4CC(CC(C4)C2)C3)c1`, for which the IC50 in test [1] was above 30 µM. In the case of `COc1ccccc1C(=O)Nc1cccc(NC(=O)c2cccc(F)c2)c1`, the IC50 in test [1] worked out at 6.48 µM. The % Glu Max in test [2] was 25.8%. On to `COc1ccccc1C(=O)Nc1cccc(NC(=O)C(C)C)c1`, for which, in test [1], the IC50 was above 30 µM.

For the compound `O=C(Nc1cccc(NC(=O)C2CC2c2ccccc2)c1)c1cccc(Cl)c1` (stereo not drawn), in test [1], the IC50 was above 30 µM. On to `COc1ccccc1C(=O)Nc1cccc(NC(=O)c2cc(Cl)cc(Cl)c2)c1`, for which the IC50 in test [1] was above 30 µM.

Regarding `COc1cc(NC(=O)c2cccc(N3C(=O)c4ccccc4C3=O)c2)cc(OC)c1`, the IC50 in test [1] was 3.58 µM. The % Glu Max in test [2] worked out at 76.2%.

In the case of `O=C(Nc1cccc(NC(=O)c2cccc(Cl)c2)c1)c1cccc(F)c1`, the IC50 in test [1] was above 30 µM. On the same count and under the same terms, the figure for `O=C(Nc1cccc(NC(=O)c2cccc(Cl)c2)c1)c1ccc(F)cc1` is above 30 µM.

The values above are taken from ChEMBL document CHEMBL1153700, “Synthesis and SAR of novel, non-MPEP chemotype mGluR5 NAMs identified by functional HTS” (Bioorg Med Chem Lett, 2009).
